The text below walks through data of patent US20240316022A1 (TYRA BIOSCIENCES, INC., priority 2021, published 2024).

What all share (assay): Kinase binding assay (kinase-tagged T7 phage, qPCR), Kd
The target of one assay is T1, FGFR4 (Homo sapiens, UniProt P22455).
T1 construct: made in house; host or cells: E. coli derived from BL21, infected with T7 phage
The note with it: read-out: FGFR4 (Kd nM). On the procedure: (§1) Kinase-tagged T7 phage strains were prepared in an E. coli host derived from the BL21 strain. E. coli were grown to log-phase and infected with T7 phage and incubated with shaking at 32° C. until lysis. The lysates were centrifuged and filtered to remove cell debris. Streptavidin-coated magnetic beads were treated with biotinylated small molecule ligands for 30 minutes at room temperature to generate affinity resins for kinase assays. The liganded beads were blocked with excess biotin and washed with blocking buffer SeaBlock (Pierce), 1% BSA, 0.05% Tween 20, 1 mM DTT to remove unbound ligand and to reduce non-specific binding. Binding reactions were assembled by combining kinases, liganded affinity beads, and test compounds in 1× binding buffer (20% SeaBlock, 0.17×PBS, 0.05% Tween 20, 6 mM DTT).
(§2) Test compounds were prepared as 111X stocks in 100% DMSO. Kds were determined using an 11-point 3-fold compound dilution series with three DMSO control points. All compounds for Kd measurements are distributed by acoustic transfer (non-contact dispensing) in 100% DMSO. The compounds were then diluted directly into the assays such that the final concentration of DMSO was 0.9%. All reactions performed in polypropylene 384-well plate. Each was a final volume of 0.02 ml. The assay plates were incubated at room temperature with shaking for 1 hour and the affinity beads were washed with wash buffer (1×PBS, 0.05% Tween 20). The beads were then re-suspended in elution buffer (1×PBS, 0.05% Tween 20, 0.5 μM non-biotinylated affinity ligand) and incubated at room temperature with shaking for 30 minutes. The kinase concentration in the eluates was measured by qPCR.
(§3) Binding constants were calculated with a standard dose-response curve using the Hill equation: […]
(§4) The Hill Slope was set to −1. Curves were fitted using a non-linear least square fit with the Levenberg-Marquardt algorithm.

A further assay concerns the target T2, FGFR3 (Homo sapiens, UniProt P22607).
T2 construct: made in house; host or cells: E. coli derived from BL21, infected with T7 phage
The settings on record: read-out: FGFR3 (Kd nM). On the procedure:
as §1, §2, §3, §4

The target in a further assay is T3, FGFR2 (Homo sapiens, UniProt P21802).
T3 construct: made in house; host or cells: E. coli derived from BL21, infected with T7 phage
T3 sequence (P21802 22-821): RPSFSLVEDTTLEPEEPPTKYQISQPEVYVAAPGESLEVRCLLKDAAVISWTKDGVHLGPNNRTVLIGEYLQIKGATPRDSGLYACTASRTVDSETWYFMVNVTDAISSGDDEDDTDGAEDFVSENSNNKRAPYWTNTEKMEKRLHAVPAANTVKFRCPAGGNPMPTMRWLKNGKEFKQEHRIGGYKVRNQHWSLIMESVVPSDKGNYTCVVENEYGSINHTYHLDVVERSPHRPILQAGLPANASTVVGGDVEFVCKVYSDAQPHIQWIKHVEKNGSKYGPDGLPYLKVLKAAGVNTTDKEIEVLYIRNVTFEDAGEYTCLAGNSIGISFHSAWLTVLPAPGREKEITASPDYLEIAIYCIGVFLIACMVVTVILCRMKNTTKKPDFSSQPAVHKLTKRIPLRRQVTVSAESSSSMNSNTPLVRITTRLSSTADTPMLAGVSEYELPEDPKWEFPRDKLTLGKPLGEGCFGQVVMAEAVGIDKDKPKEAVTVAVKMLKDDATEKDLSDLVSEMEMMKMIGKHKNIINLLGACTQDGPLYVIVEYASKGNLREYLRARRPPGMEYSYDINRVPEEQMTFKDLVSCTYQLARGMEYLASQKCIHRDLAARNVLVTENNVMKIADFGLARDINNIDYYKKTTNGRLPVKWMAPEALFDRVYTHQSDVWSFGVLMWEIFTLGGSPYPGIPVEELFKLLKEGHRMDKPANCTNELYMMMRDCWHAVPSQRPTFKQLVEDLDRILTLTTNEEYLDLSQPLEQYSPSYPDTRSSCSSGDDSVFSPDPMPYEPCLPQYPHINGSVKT
The settings on record: read-out: FGFR2 (Kd nM). On the procedure: (§5) Kinase-tagged T7 phage strains were prepared in an E. coli host derived from the BL21 strain. E. coli were grown to log-phase and infected with T7 phage and incubated with shaking at 32° C. until lysis. The lysates were centrifuged and filtered to remove cell debris. […] The liganded beads were blocked with excess biotin and washed with blocking buffer SeaBlock (Pierce), 1% BSA, 0.05% Tween 20, 1 mM DTT to remove unbound ligand and to reduce non-specific binding.
(§6) Kds were determined using an 11-point 3-fold compound dilution series with three DMSO control points. […] The compounds were then diluted directly into the assays such that the final concentration of DMSO was 0.9%. All reactions performed in polypropylene 384-well plate. Each was a final volume of 0.02 ml. […] The kinase concentration in the eluates was measured by qPCR.
as §3, §4

A further assay concerns the target T4, FGFR1 (Homo sapiens, UniProt P11362).
T4 construct: made in house; host or cells: E. coli derived from BL21, infected with T7 phage
The note with it: read-out: FGFR1 (Kd nM). On the procedure: as §5, §6, §3, §4

T2 sequence (P22607 23-806): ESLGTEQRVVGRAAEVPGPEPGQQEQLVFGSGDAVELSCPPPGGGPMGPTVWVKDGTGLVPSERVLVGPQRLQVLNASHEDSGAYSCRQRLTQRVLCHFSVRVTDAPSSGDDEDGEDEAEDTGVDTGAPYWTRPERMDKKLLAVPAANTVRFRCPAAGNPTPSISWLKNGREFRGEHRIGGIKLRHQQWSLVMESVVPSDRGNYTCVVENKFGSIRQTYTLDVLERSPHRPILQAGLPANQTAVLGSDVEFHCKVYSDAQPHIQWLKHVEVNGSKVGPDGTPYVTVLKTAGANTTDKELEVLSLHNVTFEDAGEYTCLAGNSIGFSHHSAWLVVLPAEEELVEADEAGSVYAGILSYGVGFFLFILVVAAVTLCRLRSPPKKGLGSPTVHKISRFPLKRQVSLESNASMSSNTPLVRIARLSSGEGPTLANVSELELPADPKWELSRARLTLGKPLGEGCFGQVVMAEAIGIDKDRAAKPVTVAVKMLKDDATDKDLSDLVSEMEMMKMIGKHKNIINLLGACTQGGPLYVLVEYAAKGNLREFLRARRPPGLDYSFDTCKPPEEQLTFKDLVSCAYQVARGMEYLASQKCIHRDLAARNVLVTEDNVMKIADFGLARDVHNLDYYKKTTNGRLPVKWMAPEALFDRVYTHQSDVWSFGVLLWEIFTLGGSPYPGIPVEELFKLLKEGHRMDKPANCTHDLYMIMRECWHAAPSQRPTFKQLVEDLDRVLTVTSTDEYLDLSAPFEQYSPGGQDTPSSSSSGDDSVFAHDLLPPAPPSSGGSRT
T1 sequence (P22455 22-802): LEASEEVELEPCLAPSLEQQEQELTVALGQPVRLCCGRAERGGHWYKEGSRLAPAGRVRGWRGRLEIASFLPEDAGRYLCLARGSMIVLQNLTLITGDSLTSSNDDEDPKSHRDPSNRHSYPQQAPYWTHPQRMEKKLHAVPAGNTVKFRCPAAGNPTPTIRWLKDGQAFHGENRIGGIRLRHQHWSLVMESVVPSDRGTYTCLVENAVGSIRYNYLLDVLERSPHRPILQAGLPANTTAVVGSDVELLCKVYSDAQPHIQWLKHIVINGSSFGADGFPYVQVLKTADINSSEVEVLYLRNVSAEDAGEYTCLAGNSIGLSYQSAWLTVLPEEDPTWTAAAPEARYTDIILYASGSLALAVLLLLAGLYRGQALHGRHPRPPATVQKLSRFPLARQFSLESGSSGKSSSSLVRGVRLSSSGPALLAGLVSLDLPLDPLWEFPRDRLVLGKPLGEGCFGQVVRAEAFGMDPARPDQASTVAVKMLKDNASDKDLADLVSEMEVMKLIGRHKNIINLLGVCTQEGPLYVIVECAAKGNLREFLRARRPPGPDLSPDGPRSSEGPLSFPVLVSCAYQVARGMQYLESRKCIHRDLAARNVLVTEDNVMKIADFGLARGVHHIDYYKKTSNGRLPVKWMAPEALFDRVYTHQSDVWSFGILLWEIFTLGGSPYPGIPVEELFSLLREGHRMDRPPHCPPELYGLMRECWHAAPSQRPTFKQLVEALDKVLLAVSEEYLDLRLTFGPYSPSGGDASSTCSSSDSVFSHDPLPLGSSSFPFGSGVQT
T4 sequence (P11362 22-822): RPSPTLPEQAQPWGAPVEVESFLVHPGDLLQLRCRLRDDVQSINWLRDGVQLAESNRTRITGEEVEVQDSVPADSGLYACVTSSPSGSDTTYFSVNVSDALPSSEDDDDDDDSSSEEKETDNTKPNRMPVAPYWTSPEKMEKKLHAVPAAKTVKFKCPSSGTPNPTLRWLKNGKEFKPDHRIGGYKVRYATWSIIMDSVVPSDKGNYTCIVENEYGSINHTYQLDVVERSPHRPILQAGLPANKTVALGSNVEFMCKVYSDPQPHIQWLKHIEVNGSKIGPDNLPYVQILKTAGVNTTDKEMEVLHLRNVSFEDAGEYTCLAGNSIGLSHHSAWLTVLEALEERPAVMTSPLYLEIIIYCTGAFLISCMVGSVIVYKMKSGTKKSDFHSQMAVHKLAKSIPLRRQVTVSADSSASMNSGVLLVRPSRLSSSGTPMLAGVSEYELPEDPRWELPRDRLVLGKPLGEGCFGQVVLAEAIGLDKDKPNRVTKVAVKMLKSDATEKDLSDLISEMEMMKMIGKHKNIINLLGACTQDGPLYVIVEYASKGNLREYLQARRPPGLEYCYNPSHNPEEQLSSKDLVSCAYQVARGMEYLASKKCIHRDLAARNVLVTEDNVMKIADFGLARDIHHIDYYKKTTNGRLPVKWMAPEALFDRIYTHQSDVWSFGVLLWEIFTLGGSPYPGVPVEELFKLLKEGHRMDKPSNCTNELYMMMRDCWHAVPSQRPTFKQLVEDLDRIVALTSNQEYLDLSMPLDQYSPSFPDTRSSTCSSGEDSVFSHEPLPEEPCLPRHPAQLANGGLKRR

In general, Kd refers to the free concentration of one partner at which half of the binding sites on the other are occupied at equilibrium, for simple one-to-one binding. Take `COc1ncc(-c2n[nH]c3ccc(O[C@H](C)c4c(Cl)cncc4Cl)cc23)cc1NC(=O)c1cccc2cccnc12` [Example 3, (R)—N-(5-(5-(1-(3,5-Dichloropyridin-4-yl)ethoxy)-1H-indazol-3-yl)-2-methoxypyridin-3-yl)quinoline-8-carboxamide]: the Kd on FGFR4 was 250 to 1000 nM; at FGFR3 it was more than 1000 nM; at FGFR2 it was more than 1000 nM; at FGFR1, more than 1000 nM.

On to `C[C@@H](Oc1ccc2[nH]nc(-c3cnc4c(c3)N(CCN(C)C)CCO4)c2c1)c1c(Cl)cncc1Cl` [Example 51, 2-[7-[5-[(1R)-1-(3,5-dichloro-4-pyridyl)ethoxy]-1H-indazol-3-yl]-2,3-dihydro-pyrido[2,3-b][1,4]oxazin-1-yl]-N,N-dimethyl-ethanamine], for which the Kd is 100 to 250 nM at FGFR4, 250 to 1000 nM on FGFR3, more than 1000 nM at FGFR2 and more than 1000 nM on FGFR1.

As to `Cc1cnnc(C)c1[C@@H](C)Oc1ccc2[nH]nc(-c3cnc(O[C@H]4CCOC4)c(C#N)c3)c2c1` [Example 127, 5-(5-((R)-1-(3,5-dimethylpyridazin-4-yl)ethoxy)-1H-indazol-3-yl)-2-(((S)-tetrahydrofuran-3-yl)oxy)nicotinonitrile], the Kd is 0.1 to 100 nM at FGFR4, 0.1 to 100 nM at FGFR3, 0.1 to 100 nM on FGFR2 and 100 to 250 nM on FGFR1.

In the case of `Cc1cnnc(C)c1[C@@H](C)Oc1ccc2[nH]nc(-c3cc(C#N)cc(OC(C)C)c3)c2c1` [Example 57, 3-[5-[(1R)-1-(3,5-dimethylpyridazin-4-yl)ethoxy]-1H-indazol-3-yl]-5-isopropoxy-benzonitrile], the equilibrium dissociation constant (Kd) on FGFR4 was 0.1 to 100 nM; at FGFR3, 250 to 1000 nM; at FGFR2 it was more than 1000 nM; at FGFR1 it was 250 to 1000 nM.

As to `C[C@@H](Oc1ccc2[nH]nc(-c3ccc4c(c3)COC3(CCN(CC(F)F)CC3)O4)c2c1)c1c(Cl)cncc1Cl` [Example 168, 6-[5-[(1R)-1-(3,5-dichloro-4-pyridyl)ethoxy]-1H-indazol-3-yl]-1′-(2,2-difluoroethyl)spiro[4H-1,3-benzodioxine-2,4′-piperidine]], the Kd on FGFR4, on FGFR3, on FGFR2 and on FGFR1 was 0.1 to 100 nM throughout.

With `C[C@@H](Oc1ccc2[nH]nc(-c3ccc(S(C)(=O)=O)nc3)c2c1)c1c(Cl)cncc1Cl` [Example 10, (R)-5-(1-(3,5-Dichloropyridin-4-yl)ethoxy)-3-(6-(methylsulfonyl)pyridin-3-yl)-1H-indazole], the Kd on FGFR4, at FGFR3, on FGFR2 and on FGFR1 was 0.1 to 100 nM throughout.

With `Cc1cnnc(C)c1[C@@H](C)Oc1ccc2[nH]nc(-c3cnc(O[C@@H]4CCOC4)c(C#N)c3)c2c1` [Example 128, 5-(5-((R)-1-(3,5-dimethylpyridazin-4-yl)ethoxy)-1H-indazol-3-yl)-2-(((R)-tetrahydrofuran-3-yl)oxy)nicotinonitrile], the Kd on FGFR4 fell in the range of 0.1 to 100 nM; at FGFR3 it was 0.1 to 100 nM; at FGFR2, 100 to 250 nM; on FGFR1, 100 to 250 nM.

In the case of `CCS(=O)(=O)N1CCOc2ncc(-c3n[nH]c4ccc(O[C@H](C)c5c(Cl)cncc5Cl)cc34)cc21` [Example 144], the dissociation constant Kd was 0.1 to 100 nM at FGFR4, more than 1000 nM at FGFR3, more than 1000 nM at FGFR2 and more than 1000 nM on FGFR1.

On to `COc1cc(N)cc(-c2n[nH]c3ccc(O[C@H](C)c4c(Cl)cncc4Cl)cc23)c1` [Example 44, 3-[5-[(1R)-1-(3,5-dichloro-4-pyridyl)ethoxy]-1H-indazol-3-yl]-5-methoxy-aniline], for which the Kd was 0.1 to 100 nM on FGFR4, 250 to 1000 nM at FGFR3, more than 1000 nM on FGFR2 and more than 1000 nM on FGFR1.

For `CCN1CCC(Oc2c(C)cc(-c3n[nH]c4ccc(O[C@H](C)c5c(C)cnnc5C)cc34)cc2C#N)CC1` [Example 115, (R)-5-(5-(1-(3,5-dimethylpyridazin-4-yl)ethoxy)-1H-indazol-3-yl)-2-((1-ethylpiperidin-4-yl)oxy)-3-methylbenzonitrile], the Kd on FGFR4, at FGFR3, at FGFR2 and at FGFR1 was 0.1 to 100 nM each time.

Regarding `C[C@@H](Oc1ccc2[nH]nc(-c3cnc(N[C@@H]4CCOC4)c(C#N)c3)c2c1)c1c(Cl)cncc1Cl` [Example 130, 5-(5-((R)-1-(3,5-dichloropyridin-4-yl)ethoxy)-1H-indazol-3-yl)-2-(((R)-tetrahydrofuran-3-yl)amino)nicotinonitrile], the Kd on FGFR4, at FGFR3, on FGFR2 and on FGFR1 was 0.1 to 100 nM each time.

Take `COc1cc2[nH]nc(-c3cc(C#N)cc(C4CC4)c3)c2cc1O[C@H](C)c1c(C)cnnc1C` [Example 117, (R)-3-cyclopropyl-5-(5-(1-(3,5-dimethylpyridazin-4-yl)ethoxy)-6-methoxy-1H-indazol-3-yl)benzonitrile]: the Kd on FGFR4 was 0.1 to 100 nM; on FGFR3, 100 to 250 nM; at FGFR2 it was 250 to 1000 nM; on FGFR1, 100 to 250 nM.

For the compound `COc1cc(-c2n[nH]c3ccc(O[C@H](C)c4c(C)cnnc4C)cc23)cc(C#N)c1F` [Example 93, (R)-5-(5-(1-(3,5-dimethylpyridazin-4-yl)ethoxy)-1H-indazol-3-yl)-2-fluoro-3-methoxybenzonitrile], the Kd was 100 to 250 nM at FGFR4, more than 1000 nM on FGFR3, more than 1000 nM at FGFR2 and more than 1000 nM at FGFR1.

With `COc1cc2[nH]nc(-c3cc(C#N)c(OC)c(OC)c3)c2cc1O[C@H](C)c1c(C)cnnc1C` [Example 102, (R)-5-(5-(1-(3,5-dimethylpyridazin-4-yl)ethoxy)-6-methoxy-1H-indazol-3-yl)-2,3-dimethoxybenzonitrile], the Kd lay in the range of 0.1 to 100 nM at FGFR4, 0.1 to 100 nM at FGFR3, 100 to 250 nM on FGFR2 and 100 to 250 nM at FGFR1.

Take `COc1cc(-c2n[nH]c3ccc(O[C@H](C)c4c(Cl)cncc4Cl)cc23)cc(C#N)c1OC` [Example 81, 5-[5-[(1R)-1-(3,5-dichloro-4-pyridyl)ethoxy]-1H-indazol-3-yl]-2,3-dimethoxy-benzonitrile]: the Kd at FGFR4 was 0.1 to 100 nM; at FGFR3, more than 1000 nM; on FGFR2, more than 1000 nM; on FGFR1, more than 1000 nM.

Consider `COc1ncc(-c2n[nH]c3ccc(O[C@H](C)c4c(Cl)cncc4Cl)cc23)cc1C#N` [Example 74, 5-[5-[(1R)-1-(3,5-dichloro-4-pyridyl)ethoxy]-1H-indazol-3-yl]-2-methoxy-pyridine-3-carbonitrile], for which the Kd on FGFR4 lay within 0.1 to 100 nM; at FGFR3, 0.1 to 100 nM; on FGFR2, 250 to 1000 nM; at FGFR1, 250 to 1000 nM.

In the case of `COc1ncc(-c2n[nH]c3ccc(O[C@H](C)c4c(Cl)cncc4Cl)cc23)cc1NC(=O)CCN(C)C` [Example 31, N-[5-[5-[(1R)-1-(3,5-dichloro-4-pyridyl)ethoxy]-1H-indazol-3-yl]-2-methoxy-3-pyridyl]-3-(dimethylamino)propanamido], the Kd on FGFR4 is 100 to 250 nM; at FGFR3, 100 to 250 nM; at FGFR2, more than 1000 nM; at FGFR1 it was 250 to 1000 nM.

As to `C[C@@H](Oc1cc2c(-c3cnc(O[C@@H]4CCOC4)c(C#N)c3)n[nH]c2cc1F)c1c(Cl)cncc1Cl` [Example 138, 5-(5-((R)-1-(3,5-dichloropyridin-4-yl)ethoxy)-6-fluoro-1H-indazol-3-yl)-2-(((R)-tetrahydrofuran-3-yl)oxy)nicotinonitrile], the Kd was 0.1 to 100 nM on FGFR4, 0.1 to 100 nM at FGFR3, 250 to 1000 nM at FGFR2 and 100 to 250 nM on FGFR1.

Regarding `Cc1cnnc(C)c1[C@@H](C)Oc1ccc2[nH]nc(-c3cc(C#N)cc(C4CCOC4)c3)c2c1` (stereo partly drawn) [Example 90, 3-(5-((R)-1-(3,5-dimethylpyridazin-4-yl)ethoxy)-1H-indazol-3-yl)-5-(tetrahydrofuran-3-yl)benzonitrile], the Kd was in the range of 0.1 to 100 nM at FGFR4, 0.1 to 100 nM at FGFR3, 0.1 to 100 nM at FGFR2 and 250 to 1000 nM on FGFR1.
